# Experiments:
# [1] = human
# [2] = human, serum
# [3] = human; remark: listed apart in the source
# [4] = human; remark: listed apart in the source
# [5] = human; remark: listed apart in the source
# [6] = human; remark: listed apart in the source
# [7] = Highest frequency of moderate liver toxicity observed during clinical trials, expressed as a percentage. [column '% BIOL' in source]; conditions: human
# [8] = Proposed mechanism(s) of liver damage. [column 'MEC' in source]; conditions: human
# [9] = human; remark: listed apart in the source
# [10] = Times to onset, minimal and maximal, observed in the indexed observations. [column 'DELAI' in source]; conditions: human
# [11] = human, serum; remark: listed apart in the source
# [12] = Highest frequency of acute liver toxicity observed during clinical trials, expressed as a percentage. [column '% AIGUE' in source]; conditions: human
# [13] = human; remark: listed apart in the source
# [14] = human; remark: listed apart in the source
# [15] = human; remark: listed apart in the source
# [16] = human, serum, 4383 h
# 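Wherever Hepatotoxicity (association with vascular disease) is given: count of indexed literature references reporting vascular liver injury in humans, e.g. peliosis hepatitis, hepatic veno-occlusive disease or Budd-Chiari syndrome.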
# 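Wherever Hepatotoxicity (benign tumour) is given: value is a count of indexed literature references citing a benign tumour confirmed by histopathology.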
# 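Wherever Hepatotoxicity (choleostasis) is given: human cholestatic liver injury, shown by histopathology or by peak ALT or AST elevation over alkaline phosphatase ratio below 2, value counts indexed literature reports.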
# 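Wherever Hepatotoxicity (chronic liver disease) is given: chronic liver injury confirmed by histopathology or persistently raised serum aminotransferase activity beyond 6 months, value given as the count of indexed literature references.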
# 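Wherever Hepatotoxicity (cirrhosis) is given: value is a count of indexed literature references reporting cirrhosis confirmed by histopathology.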
# 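Wherever Hepatotoxicity (cytolytic) is given: human cytolytic liver injury, shown by histopathology or by a ratio above 5 of peak ALT or AST elevation to alkaline phosphatase elevation, value counts indexed references.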
# 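Wherever Hepatotoxicity (granulomatous hepatitis) is given: value is a count of indexed literature references reporting granulomatous liver disease confirmed by histopathology.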
# 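Wherever Hepatotoxicity (malignant tumour) is given: malignant tumour confirmed by histopathology, value gives the count of indexed literature references reporting it.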
# 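Wherever Hepatotoxicity (severe hepatitis) is given: human clinical data: severe hepatitis, meaning potentially life-threatening liver failure or clinically observed cases, the value counts how many indexed literature references report it.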
# 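Wherever Hepatotoxicity (steatosis) is given: steatosis confirmed by histopathology, value is the count of indexed references.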
Compound,Hepatotoxicity (cirrhosis) [1],Hepatotoxicity (moderate) [2],Hepatotoxicity (severe hepatitis) [3],Hepatotoxicity (granulomatous hepatitis) [4],Hepatotoxicity (association with vascular disease) [5],Hepatotoxicity (choleostasis) [6],Hepatotoxicity (moderate) [7],Hepatotoxicity (mechanism) [8],Hepatotoxicity (benign tumour) [9],Hepatotoxicity (time to onset) [10],Hepatotoxicity (acute) [11],Hepatotoxicity (acute) [12],Hepatotoxicity (cytolytic) [13],Hepatotoxicity (steatosis) [14],Hepatotoxicity (malignant tumour) [15],Hepatotoxicity (chronic liver disease) [16],further results
CS(=O)(=O)c1ccc(C2=C(c3ccccc3)C(=O)OC2)cc1 [ROFECOXIB],0,1,0,0,0,1,3.2%,Allergic,0,9 weeks,2,0%,1,0,0,0,–
CCC(C)n1ncn(-c2ccc(N3CCN(c4ccc(OC[C@H]5CO[C@](Cn6cncn6)(c6ccc(F)cc6F)O5)cc4)CC3)cc2)c1=O (stereo partly drawn) [SAPERCONAZOLE],0,1,0,0,0,0,0%,Dose-dependant,0,8 weeks,0,0%,0,0,0,0,–
CC(C)[C@@H](CC[C@@H](C)[C@H]1CC[C@H]2[C@@H]3[C@H](O)C[C@H]4C[C@@H](NCCCNCCCCN)CC[C@]4(C)[C@H]3CC[C@]12C)OS(=O)(=O)O [SQUALAMINE],0,1,0,0,0,1,0%,Dose-dependant,0,2 days - 5 days,2,38.5%,2,0,0,0,–
Nc1ccc(S(N)(=O)=O)cc1 [SULFANILAMIDE],0,0,5,0,0,1,0%,Allergic,0,2 weeks - 3 months,5,0%,5,1,0,0,–
Cc1ncc(C[n+]2csc(CCO)c2C)c(N)n1 [THIAMINE ION],0,0,–,–,0,–,–,–,0,2 years,0,–,–,1,0,1,Hepatotoxicity (severe hepatitis) ([3]; Liver): 0; Hepatotoxicity (granulomatous hepatitis) ([4]; Liver): 0; Hepatotoxicity (choleostasis) ([6]; Liver): 0; Hepatotoxicity (moderate) ([7]; Liver): 0%; Hepatotoxicity (mechanism) ([8]; Liver): Dose-dependant; Hepatotoxicity (acute) ([12]; Liver): 0%; Hepatotoxicity (cytolytic) ([13]; Liver): 0
CN1CCN(CCCN2c3ccccc3Sc3ccc(S(=O)(=O)N(C)C)cc32)CC1 [THIOPROPERAZINE],0,0,0,0,0,1,0%,Allergic,0,24 days - > 1 month,2,0%,2,0,0,0,–
C[C@@H]1C[C@H]2[C@@H]3CCC4=CC(=O)C=C[C@]4(C)C3=CC[C@]2(C)[C@H]1C(=O)CN1CCN(c2cc(N3CCCC3)nc(N3CCCC3)n2)CC1 [TIRILAZAD],0,2,0,0,0,0,8.5%,Dose-dependant,0,3 days - 10 days,0,0%,0,0,0,0,–
Cc1ccc(O)c([C@H](CCN(C(C)C)C(C)C)c2ccccc2)c1 [TOLTERODINE],0,0,0,0,0,1,0%,Allergic,0,18 days,1,0%,1,0,0,0,–
O=c1n(CCCN2CCN(c3cccc(Cl)c3)CC2)nc2ccccn12 [TRAZODONE],0,0,1,0,0,3,0%,Allergic,0,5 days - 18 months,8,0%,5,0,0,1,–
CCC(COC(=O)c1cc(OC)c(OC)c(OC)c1)(c1ccccc1)N(C)C (stereo not drawn) [TRIMEBUTINE],0,0,0,0,0,0,0%,Allergic,0,2 weeks,1,0%,1,0,0,0,–
CN1C(=O)OC(C)(C)C1=O [TRIMETHADIONE],0,1,0,0,0,0,0%,Allergic,0,2 weeks - 1 month,3,0%,1,0,0,0,–
CC(C)[C@H](N)C(=O)OCCOCn1cnc2c(=O)[nH]c(N)nc21 [VALACYCLOVIR],0,2,0,0,0,1,17.6%,Dose-dependant,0,10 days,1,0%,1,0,0,0,–
COc1ccc(C(CN(C)C)C2(O)CCCCC2)cc1 (stereo not drawn) [VENLAFAXINE],0,3,0,0,0,1,2.8%,Allergic,0,12 days - 6 months,4,0%,3,0,0,0,–

# Source: ChEMBL document CHEMBL3137667, “[Drug-induced liver injury; fourteenth updated edition of the bibliographic database of liver injuries and related drugs]” (Gastroenterol Clin Biol, 2004)
